The source made the active and inactive calls. The calls are words filed in the database; no cut-off is given here.
Experiments:
[1] = system: Influenza A virus; assay: Inhibition of 10^2 EID50 influenza A/Vietnam/1203/04 H5N1 virus replication in ferrets spleen at 25 mg/kg after 24 hrs of inoculum for 5 days; type: functional, organism-based; set-up: dose 25 mg/kg
[2] = system: Influenza A virus; assay: Inhibition of 10^2 EID50 influenza A/Vietnam/1203/04 H5N1 virus replication in ferrets liver at 10 mg/kg after 24 hrs of inoculum for 5 days; type: functional, organism-based; set-up: dose 10 mg/kg
[3] = system: Influenza A virus; assay: Antiviral activity against 10^2 EID50 influenza A/Vietnam/1203/04 H5N1 virus inoculated ferrets assessed as inhibition of viral replication in small intestine at 5 mg/kg after 4 hrs of inoculum for 5 days; type: functional, organism-based; set-up: dose 5 mg/kg
[4] = system: Influenza A virus; assay: Antiviral activity against 10 EID50 influenza A/Vietnam/1203/04 H5N1 virus inoculated ferrets assessed as increase in temperature at 5 mg/kg after 4 hrs of inoculum for 5 days; type: functional
[5] = system: Influenza A virus; assay: Antiviral activity against 10^6 EID50 influenza A/turkey/15/06 H5N1 virus inoculated ferrets assessed as viral titer in lungs at 10 mg/kg after 24 hrs of inoculum for 5 days; type: functional, Influenza A virus (A/Turkey/15/2006(H5N1))
[6] = system: Influenza A virus; assay: Inhibition of 10^2 EID50 influenza A/Vietnam/1203/04 H5N1 virus replication in ferrets lungs at 25 mg/kg after 24 hrs of inoculum for 5 days; type: functional, organism-based; set-up: dose 25 mg/kg
[7] = system: Influenza A virus; assay: Inhibition of 10^2 EID50 influenza A/Vietnam/1203/04 H5N1 virus replication in ferrets lungs at 10 mg/kg after 24 hrs of inoculum for 5 days; type: functional, organism-based; set-up: dose 10 mg/kg
[8] = system: Influenza A virus; assay: Antiviral activity against 10^2 EID50 influenza A/Vietnam/1203/04 H5N1 virus inoculated ferrets assessed as increase in temperature at 10 mg/kg after 24 hrs of inoculum for 5 days; type: functional
[9] = system: Influenza A virus; assay: Antiviral activity against 10^2 EID50 influenza A/Vietnam/1203/04 H5N1 virus inoculated ferrets assessed as weight loss at 25 mg/kg after 24 hrs of inoculum for 5 days; type: functional
[10] = system: Influenza A virus; assay: Survival of 10^6 EID50 influenza A/turkey/15/06 H5N1 virus inoculated ferrets at 10 mg/kg twice daily after 24 hrs inoculum for 5 days; type: functional, organism-based; set-up: dose 10 mg/kg; details: Influenza A virus (A/Turkey/15/2006(H5N1))
[11] = system: Influenza A virus; assay: Antiviral activity against 10^2 EID50 influenza A/Vietnam/1203/04 H5N1 virus inoculated ferrets assessed as inhibition of viral replication in lungs at 5 mg/kg after 4 hrs of inoculum for 5 days; type: functional, organism-based; set-up: dose 5 mg/kg
[12] = system: Influenza A virus; assay: Antiviral activity against 10^2 EID50 influenza A/Vietnam/1203/04 H5N1 virus inoculated ferrets assessed as increase in temperature at 25 mg/kg after 24 hrs of inoculum for 5 days; type: functional
[13] = system: Influenza A virus; assay: Antiviral activity against 10 EID50 influenza A/Vietnam/1203/04 H5N1 virus inoculated ferrets assessed as day of death at 5 mg/kg after 4 hrs of inoculum for 5 days; type: functional
[14] = system: Influenza A virus; assay: Antiviral activity against 10^6 EID50 influenza A/turkey/15/06 H5N1 virus inoculated ferrets assessed as viral titer in brain at 10 mg/kg after 24 hrs of inoculum for 5 days; type: functional, Influenza A virus (A/Turkey/15/2006(H5N1))
[15] = system: Influenza A virus; assay: Survival of 10^2 EID50 influenza A/Vietnam/1203/04 H5N1 virus inoculated ferrets at 10 mg/kg after 24 hrs of inoculum for 5 days; type: functional, organism-based; set-up: dose 10 mg/kg
[16] = system: Influenza A virus; assay: Inhibition of 10^2 EID50 influenza A/Vietnam/1203/04 H5N1 virus replication in ferrets liver at 25 mg/kg after 24 hrs of inoculum for 5 days; type: functional, organism-based; set-up: dose 25 mg/kg
[17] = system: Influenza A virus; assay: Antiviral activity against 10^2 EID50 influenza A/Vietnam/1203/04 H5N1 virus inoculated ferrets assessed as day of death at 25 mg/kg after 24 hrs of inoculum for 5 days; type: functional
[18] = system: Influenza A virus; assay: Inhibition of influenza A/Vietnam/1203/04 virus replication in ferrets upper respiratory tract at 10 mg/kg twice daily after 24 hrs of inoculum for 5 days; type: functional, organism-based; set-up: dose 10 mg/kg
[19] = system: Influenza A virus; assay: Antiviral activity against 10^2 EID50 influenza A/Vietnam/1203/04 H5N1 virus inoculated ferrets assessed as weight loss at 10 mg/kg after 24 hrs of inoculum for 5 days; type: functional
[20] = system: Influenza A virus; assay: Survival of 10^2 EID50 influenza A/Vietnam/1203/04 H5N1 virus inoculated ferrets at 25 mg/kg after 24 hrs of inoculum for 5 days; type: functional, organism-based; set-up: dose 25 mg/kg
[21] = system: Influenza A virus; assay: Antiviral activity against 10^6 EID50 influenza A/turkey/15/06 H5N1 virus inoculated ferrets assessed as weight loss at 10 mg/kg twice daily after 24 hrs inoculum for 5 days; type: functional, Influenza A virus (A/Turkey/15/2006(H5N1))
[22] = system: Influenza A virus; assay: Antiviral activity against 10 EID50 influenza A/Vietnam/1203/04 H5N1 virus inoculated ferrets assessed as weight loss at 5 mg/kg after 4 hrs of inoculum for 5 days; type: functional
[23] = system: Influenza A virus; assay: Inhibition of 10^2 EID50 influenza A/Vietnam/1203/04 H5N1 virus replication in ferrets spleen at 10 mg/kg after 24 hrs of inoculum for 5 days; type: functional, organism-based; set-up: dose 10 mg/kg
[24] = system: Influenza A virus; assay: Antiviral activity against 10^2 EID50 influenza A/Vietnam/1203/04 H5N1 virus inoculated ferrets assessed as inhibition of virus spread in liver at 5 mg/kg after 4 hrs of inoculum for 5 days; type: functional, organism-based; set-up: dose 5 mg/kg
[25] = system: Influenza A virus; assay: Antiviral activity against 10^6 EID50 influenza A/turkey/15/06 H5N1 virus inoculated ferrets assessed as increase in temperature at 10 mg/kg twice daily after 24 hrs inoculum for 5 days; type: functional, Influenza A virus (A/Turkey/15/2006(H5N1))
[26] = system: Influenza A virus; assay: Survival of 10^2 EID50 influenza A/Vietnam/1203/04 H5N1 virus inoculated ferrets at 5 mg/kg after 4 hrs of inoculum for 5 days; type: functional, organism-based; set-up: dose 5 mg/kg
[27] = system: Influenza A virus; assay: Antiviral activity against 10^2 EID50 influenza A/Vietnam/1203/04 H5N1 virus inoculated ferrets assessed as inhibition of virus spread in spleen at 5 mg/kg after 4 hrs of inoculum for 5 days; type: functional, organism-based; set-up: dose 5 mg/kg
[28] = system: Influenza A virus; assay: Antiviral activity against 10^2 EID50 influenza A/Vietnam/1203/04 H5N1 virus inoculated ferrets assessed as day of death at 10 mg/kg after 24 hrs of inoculum for 5 days; type: functional
[29] = system: Influenza A virus; assay: Inhibition of 10^2 EID50 influenza A/Vietnam/1203/04 H5N1 virus replication in ferrets brain at 25 mg/kg after 24 hrs of inoculum for 5 days; type: functional, organism-based; set-up: dose 25 mg/kg
[30] = system: Influenza A virus; assay: Antiviral activity against 10^2 EID50 influenza A/Vietnam/1203/04 H5N1 virus inoculated ferrets assessed as inhibition of virus spread in brain at 5 mg/kg after 4 hrs of inoculum for 5days; type: functional, organism-based; set-up: dose 5 mg/kg
[31] = system: Influenza A virus; assay: Antiviral activity against 10^2 EID50 influenza A/Vietnam/1203/04 H5N1 virus inoculated ferrets assessed as increase in temperature at 5 mg/kg after 4 hrs of inoculum for 5 days; type: functional
[32] = system: Influenza A virus; assay: Survival of 10 EID50 influenza A/Vietnam/1203/04 H5N1 virus inoculated ferrets at 5 mg/kg after 4 hrs of inoculum for 5 days; type: functional, organism-based; set-up: dose 5 mg/kg
[33] = system: Influenza A virus; assay: Antiviral activity against 10^2 EID50 influenza A/Vietnam/1203/04 H5N1 virus inoculated ferrets assessed as day of death at 5 mg/kg after 4 hrs of inoculum for 5 days; type: functional
[34] = system: Influenza A virus; assay: Antiviral activity against 10^2 EID50 influenza A/Vietnam/1203/04 H5N1 virus inoculated ferrets assessed as maximal change in weight loss at 5 mg/kg after 4 hrs of inoculum for 5 days; type: functional

## CCOC(=O)C1=C[C@@H](OC(CC)CC)[C@H](NC(C)=O)[C@@H](N)C1 [OSELTAMIVIR]
[1]
  Activity: Active
[2]
  Activity: Active
[3]
  Activity: Active
[4]
  Activity: 5%
[5]
  log10EID50/g: <0.75
[6]
  Activity: Active
[7]
  Activity: Active
[8]
  Activity: 5.7%
[9]
  Activity: 13.4%
[10]
  Activity: Active
[11]
  Activity: Active
[12]
  Activity: 6%
[13]
  Activity: >21 days
[14]
  log10EID50/g: <0.75
[15]
  Activity: inactive
[16]
  Activity: Active
[17]
  Activity: >21 days
[18]
  Activity: inactive
[19]
  Activity: 22.1%
[20]
  Activity: Active
[21]
  Activity: 17.9%
[22]
  Activity: 8.8%
[23]
  Activity: Active
[24]
  Activity: inactive
[25]
  Activity: 6%
[26]
  Activity: Active
[27]
  Activity: inactive
[28]
  Activity: 7.3 days
[29]
  Activity: inactive
[30]
  Activity: inactive
[31]
  Activity: 3.4%
[32]
  Activity: Active
[33]
  Activity: 21 days
[34]
  Activity: 20.4%

Source: ChEMBL document CHEMBL1147118, “Efficacy of oseltamivir therapy in ferrets inoculated with different clades of H5N1 influenza virus” (2007)
